Laboratory results published in US20100256206A1, “CRYSTALLINE FORM B OF OLMESARTAN MEDOXOMIL” (priority 2007, published 2010).

Assays:
[1] = cited from earlier work
[2] = DSC and XRPD experiments, polymorphic transition; assay type: physicochemical
Description: The X-ray powder diffraction data was obtained by methods known in the art using a Bruker D8 Advance Powder Diffractometer with scintillation detector under the following parameters: Reflection mode Cu Kα radiation (1.5406 Å) Scanning range: 2-50 °2θ Step size: 0.02 °2θ Time per step: 2 s The powder obtained by the process according to the invention as described above and in the following examples was also subjected to Differential Scanning Calorimetry (DSC). The DSC thermal analysis data was obtained using a Mettler-Toledo DSC821e apparatus under the following parameters: • Temperature profile: 25-300° C. @ 5° C./min • Nitrogen purge gas, 50 ml/min • Aluminium pan, […], pierced prior to scan The powder obtained by the process according to the invention as described above and in the following examples was also subjected to Thermo-Gravimetric Analysis (TGA). […] Indeed, the DSC and XRPD experiments indicate that no polymorphic transition of crystalline form B occurs up to temperatures of ca. 170° C.

[3] = Thermo-Gravimetric Analysis (TGA) of the powder; assay type: physicochemical; conditions: at processing temperatures and storage temperatures; TGA 25-300° C. @ 5° C./min
Description: The powder obtained by the process according to the invention as described above and in the following examples was also subjected to Thermo-Gravimetric Analysis (TGA). […] Indeed, the DSC and XRPD experiments indicate that no polymorphic transition of crystalline form B occurs up to temperatures of ca. 170° C.
The TGA analysis data was obtained using a Mettler-Toledo TGA851e apparatus under the following parameters:
Temperature profile: 25-300° C. @ 5° C./min
Nitrogen purge gas, 50 ml/min
Aluminium pan, […], pierced prior to scan

Row | Compound | aqueous solubility [1] | temperature up to which no polymorphic transition occurs [2] | chemical stability, degradation by conversion to other polymorphic forms [3]
1 | CCCc1nc(C(C)(C)O)c(C(=O)OCc2oc(=O)oc2C)n1Cc1ccc(-c2ccccc2-c2nnn[nH]2)cc1 [Olmesartan medoxomil, 2,3-dihydroxy-2-butenyl 4-(1-hydroxy-1-methylethyl)-2-propyl-1-[p-(o-tetrazol-5-yl-phenyl)benzyl]imidazole-5-carboxylate cyclic 2,3-carbonate] | very low |  | 
2 | CCCc1nc(C(C)(C)O)c(C(=O)OCc2oc(=O)oc2C)n1Cc1ccc(-c2ccccc2-c2nnn[nH]2)cc1 [crystalline form B, 2,3-dihydroxy-2-butenyl 4-(1-hydroxy-1-methylethyl)-2-propyl-1-[p-(o-tetrazol-5-yl-phenyl)benzyl]imidazole-5-carboxylate cyclic 2,3-carbonate] |  | ca. 170 °C | chemically stable
